Four compounds from patent US20230398130A1, “METHODS AND COMPOSITIONS FOR DIFFERENTIATING STEM CELLS” (Massachusetts Institute of Technology, priority 2020, published 2023) can be followed below.

Assay [1] relates to ISC-enriched organoids. As to the kind of experiment: Primary screen, 384-well 2.5-D organoid differentiation (ENR+CD, 6 days): basal lysozyme secretion (LYZ.NS). The format is cell-based, murine. To be noted: primary screen; for Dose.FC.LYZ.NS (log 2 fold change): vs plate median. The text has this:
(§1) High-throughput screening.

Assay [2] concerns ISC-enriched organoids. As to the kind of experiment: Primary screen, 384-well 2.5-D organoid differentiation (ENR+CD, 6 days): carbachol-induced lysozyme secretion (LYZ.S). The format is cell-based, murine. The conditions noted are these: primary screen, vs plate median.
From the text: as §1

For assay [3], the system named is ISC-enriched organoids. As to the kind of experiment: Primary screen, 384-well 2.5-D organoid differentiation (ENR+CD, 6 days, Target Selective Inhibitor Library, vs whole-plate median): ATP (CellTiter-Glo 3D, CTG). The conditions noted are these: primary screen; for Dose.FC.CTG (log 2 fold change): vs plate median. A general note: ATP-based viability assays read luminescence as a measure of living cells.

For the compound `Cc1cc(NC(=O)Nc2ccc(N(C)C)cc2)c2cc(F)cc(F)c2n1` [SB408124], the “Z.LYZ.NS (standard z score)” value is 1.494 in the assay with ISC-enriched organoids [1] (Dose 0.08 uM), 1.168 in the assay with ISC-enriched organoids [1] (Dose 0.40 uM), 0.730 in the assay on ISC-enriched organoids [1] (Dose 2.00 uM) and −0.607 in the assay with ISC-enriched organoids [1] (Dose 10.00 uM). Also, the “Dose.FC.LYZ.NS (log 2 fold change)” value is given as 0.172 in the assay with ISC-enriched organoids [1] (Dose 0.08 uM), 0.134 in the assay on ISC-enriched organoids [1] (Dose 0.40 uM), 0.084 in the assay with ISC-enriched organoids [1] (Dose 2.00 uM) and −0.070 in the assay on ISC-enriched organoids [1] (Dose 10.00 uM). In addition, the “Dose.FC.LYZ.S (log 2 fold change)” value is 0.198 in the assay on ISC-enriched organoids [2] (Dose 0.08 uM), 0.193 in the assay with ISC-enriched organoids [2] (Dose 0.40 uM), 0.082 with ISC-enriched organoids [2] (Dose 2.00 uM) and −0.148 with ISC-enriched organoids [2] (Dose 10.00 uM). Besides, the “Z.CTG (standard z score)” value in the assay with ISC-enriched organoids [3] (Dose 0.08 uM) was found to be 0.978; in the assay on ISC-enriched organoids [3] (Dose 0.40 uM) it was 0.799; with ISC-enriched organoids [3] (Dose 2.00 uM), 0.869; in the assay on ISC-enriched organoids [3] (Dose 10.00 uM), 0.216. Further, the “Dose.FC.CTG (log 2 fold change)” value in the assay with ISC-enriched organoids [3] (Dose 0.08 uM) stood at 0.410; in the assay on ISC-enriched organoids [3] (Dose 0.40 uM), 0.334; in the assay on ISC-enriched organoids [3] (Dose 2.00 uM) it was 0.364; in the assay on ISC-enriched organoids [3] (Dose 10.00 uM) it was 0.091.
Turning to `O=C1NC(=O)C(c2ccccc2[N+](=O)[O-])=C1Nc1ccc(O)c(Cl)c1` [SB415286], the “Z.LYZ.NS (standard z score)” value is 1.262 with ISC-enriched organoids [1] (Dose 0.08 uM), 0.101 in the assay with ISC-enriched organoids [1] (Dose 0.40 uM), 1.024 in the assay with ISC-enriched organoids [1] (Dose 2.00 uM) and −0.136 in the assay with ISC-enriched organoids [1] (Dose 10.00 uM). Moreover, the “Dose.FC.LYZ.NS (log 2 fold change)” value in the assay with ISC-enriched organoids [1] (Dose 0.08 uM) is reported as 0.145; in the assay on ISC-enriched organoids [1] (Dose 0.40 uM), 0.012; in the assay with ISC-enriched organoids [1] (Dose 2.00 uM), 0.118; in the assay with ISC-enriched organoids [1] (Dose 10.00 uM), −0.016. The “Dose.FC.LYZ.S (log 2 fold change)” value is on record as 0.159 in the assay on ISC-enriched organoids [2] (Dose 0.08 uM), −0.008 with ISC-enriched organoids [2] (Dose 0.40 uM), −0.053 with ISC-enriched organoids [2] (Dose 2.00 uM) and −0.042 in the assay with ISC-enriched organoids [2] (Dose 10.00 uM). The “Z.CTG (standard z score)” value is given as 0.527 with ISC-enriched organoids [3] (Dose 0.08 uM), −0.011 with ISC-enriched organoids [3] (Dose 0.40 uM), −0.231 in the assay with ISC-enriched organoids [3] (Dose 2.00 uM) and 0.293 with ISC-enriched organoids [3] (Dose 10.00 uM). Also, the “Dose.FC.CTG (log 2 fold change)” value in the assay with ISC-enriched organoids [3] (Dose 0.08 uM) was 0.221; with ISC-enriched organoids [3] (Dose 0.40 uM), −0.004; in the assay on ISC-enriched organoids [3] (Dose 2.00 uM), −0.097; in the assay on ISC-enriched organoids [3] (Dose 10.00 uM), 0.123.
Consider `O=C(Nc1ccccc1Br)N[C@@H]1CCN(c2ccc(C(F)(F)F)cn2)C1` [SB705498], for which the “Z.LYZ.NS (standard z score)” value in the assay on ISC-enriched organoids [1] (Dose 0.08 uM) is given as 0.642; in the assay on ISC-enriched organoids [1] (Dose 0.40 uM) it was −0.433; in the assay on ISC-enriched organoids [1] (Dose 2.00 uM) it was −0.008; in the assay on ISC-enriched organoids [1] (Dose 10.00 uM) it was −0.154. In addition, the “Dose.FC.LYZ.NS (log 2 fold change)” value is 0.074 with ISC-enriched organoids [1] (Dose 0.08 uM), −0.050 with ISC-enriched organoids [1] (Dose 0.40 uM), −0.001 in the assay with ISC-enriched organoids [1] (Dose 2.00 uM) and −0.018 with ISC-enriched organoids [1] (Dose 10.00 uM). Further, the “Dose.FC.LYZ.S (log 2 fold change)” value with ISC-enriched organoids [2] (Dose 0.08 uM) is 0.094; with ISC-enriched organoids [2] (Dose 0.40 uM), 0.023; with ISC-enriched organoids [2] (Dose 2.00 uM) it was −0.030; in the assay with ISC-enriched organoids [2] (Dose 10.00 uM), −0.023. Also, the “Z.CTG (standard z score)” value is reported as 0.318 in the assay on ISC-enriched organoids [3] (Dose 0.08 uM), −0.102 in the assay on ISC-enriched organoids [3] (Dose 0.40 uM), −0.009 in the assay on ISC-enriched organoids [3] (Dose 2.00 uM) and −0.089 with ISC-enriched organoids [3] (Dose 10.00 uM). The “Dose.FC.CTG (log 2 fold change)” value was 0.133 in the assay with ISC-enriched organoids [3] (Dose 0.08 uM), −0.043 in the assay on ISC-enriched organoids [3] (Dose 0.40 uM), −0.004 in the assay on ISC-enriched organoids [3] (Dose 2.00 uM) and −0.037 with ISC-enriched organoids [3] (Dose 10.00 uM).
Take `O=S(=O)(c1ccccc1)c1cnc2c(N3CCNCC3)cccc2c1` [SB742457]: the “Z.LYZ.NS (standard z score)” value in the assay on ISC-enriched organoids [1] (Dose 0.08 uM) is 0.108; in the assay on ISC-enriched organoids [1] (Dose 0.40 uM), −0.537; in the assay on ISC-enriched organoids [1] (Dose 2.00 uM) it was 0.598; in the assay on ISC-enriched organoids [1] (Dose 10.00 uM), 0.115. The “Dose.FC.LYZ.NS (log 2 fold change)” value in the assay on ISC-enriched organoids [1] (Dose 0.08 uM) is given as 0.012; in the assay with ISC-enriched organoids [1] (Dose 0.40 uM), −0.062; in the assay on ISC-enriched organoids [1] (Dose 2.00 uM), 0.069; with ISC-enriched organoids [1] (Dose 10.00 uM) it was 0.013. For the same compound, the “Dose.FC.LYZ.S (log 2 fold change)” value is recorded as −0.055 in the assay with ISC-enriched organoids [2] (Dose 0.08 uM), −0.029 with ISC-enriched organoids [2] (Dose 0.40 uM), −0.003 in the assay on ISC-enriched organoids [2] (Dose 2.00 uM) and −0.006 with ISC-enriched organoids [2] (Dose 10.00 uM). Also, the “Z.CTG (standard z score)” value in the assay on ISC-enriched organoids [3] (Dose 0.08 uM) is on record as −0.693; in the assay on ISC-enriched organoids [3] (Dose 0.40 uM) it was −0.300; with ISC-enriched organoids [3] (Dose 2.00 uM), −0.423; in the assay with ISC-enriched organoids [3] (Dose 10.00 uM), −0.702. Further, the “Dose.FC.CTG (log 2 fold change)” value is −0.290 in the assay with ISC-enriched organoids [3] (Dose 0.08 uM), −0.126 in the assay on ISC-enriched organoids [3] (Dose 0.40 uM), −0.177 in the assay with ISC-enriched organoids [3] (Dose 2.00 uM) and −0.294 in the assay with ISC-enriched organoids [3] (Dose 10.00 uM).
